# How the values were obtained:
# [1] = system: metastatic renal cell carcinoma (mRCC); assay: CABOSUN (ALLIANCE A031203) trial, cabozantinib vs sunitinib as initial targeted therapy
# Protocol: Pts were randomized 1:1 to receive Cabo (60 mg QD) or Sun (50 mg QD, 4 weeks on/2 weeks off). Pts were stratified by the IMDC risk groups (intermediate vs. poor risk) and bone metastasis (yes, no). […] Secondary endpoints included OS, investigator-assessed overall response rate (ORR), and toxicity. The Kaplan-Meier product-limit estimator was used to estimate the OS between treatment arms.
# [2] = Solubility in aqueous media; format: physicochemical
# [3] = system: advanced renal cell carcinoma; conditions: nivolumab study; cited from earlier work
compound,measurement,setting,value
"CCN(CC)CCNC(=O)c1c(C)[nH]c(/C=C2\C(=O)Nc3ccc(F)cc32)c1C [sunitinib, reference compound]",All-causality grade 3 or 4 adverse events,"[1]; human, in vivo",68%
same,"Diarrhea, grade 3 or 4","[1]; human, in vivo",I1%
same,"Fatigue, grade 3 or 4","[1]; human, in vivo",15%
same,"Hematologic adverse events, grade 3 or 4","[1]; human, in vivo",22%
same,"Hypertension, grade 3 or 4","[1]; human, in vivo",22%
same,"Palmar-plantar erythrodysesthesia, grade 3 or 4","[1]; human, in vivo",4%
same,Median OS,[1]; in vivo,21.8 months
same,ORR,[1]; in vivo,18%
same,Median PFS,"[1]; untreated mRCC, intermediate or poor risk",5.6 months
"COc1cc2nccc(Oc3ccc(NC(=O)C4(C(=O)Nc5ccc(F)cc5)CC4)cc3)c2cc1OC.O=C(O)C[C@H](O)C(=O)O [Cabozantinib (S)-malate salt, N-(4-(6,7-dimethoxyquinolin-4-yloxy)phenyl)-N′-(4-fluorophenyl)cyclopropane-1,1-dicarboxamide, (2S)-hydroxybutanedioate]",Solubility in aqueous media,[2],practically insoluble in aqueous media
nivolumab,Hazard ratio for death vs everolimus,[3],0.73

# Source: patent US11141413B2, “Method of treating renal cell carcinoma using N-(4-(6,7-dimethoxyquinolin-4-yloxy)phenyl)-N′-(4-fluorophenyl)cyclopropane-1,1-dicarboxamide, (2S)-hydroxybutanedioate” (Exelixis, Inc., priority 2016, dated 2021)
